# Measured values: ChEMBL document CHEMBL1201862, “PubChem BioAssay data set” (2004)
#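 Following 48 hours of exposure in 96-well plates, responses at five concentrations were used to interpolate endpoints linearly. The concentration for 50% growth inhibition is given as GI50.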 Calls of active or inactive are those of the source. Rule as the data show it: active = GI50 up to about 1.1 µM and inactive = higher.
# Experiments:
# Experiment in all cases: growth of human tumour cells (NCI), 48 h
# A498 = tested on: A498
# ACHN = tested on: ACHN
# BT-549 = tested on: BT-549
# CCRF-CEM = tested on: CCRF-CEM
# COLO 205 = tested on: COLO 205
# DU-145 = tested on: DU-145
# HCC 2998 = tested on: HCC 2998
# HCT-116 = tested on: HCT-116
# K562 = tested on: K562
# MDA-MB-435 = tested on: MDA-MB-435
# MOLT-4 = tested on: MOLT-4
# Malme-3M = tested on: Malme-3M
# NCI/ADR-RES = tested on: NCI/ADR-RES
# OVCAR-3 = tested on: OVCAR-3
# OVCAR-8 = tested on: OVCAR-8
# RPMI-8226 = tested on: RPMI-8226
# RXF 393 = tested on: RXF 393
# SF-268 = tested on: SF-268
# SNB-75 = tested on: SNB-75
Compound,GI50 (A498),GI50 (ACHN),GI50 (BT-549),GI50 (CCRF-CEM),GI50 (COLO 205),GI50 (DU-145),GI50 (HCC 2998),GI50 (HCT-116),GI50 (K562),GI50 (MDA-MB-435),GI50 (MOLT-4),GI50 (Malme-3M),GI50 (NCI/ADR-RES),GI50 (OVCAR-3),GI50 (OVCAR-8),GI50 (RPMI-8226),GI50 (RXF 393),GI50 (SF-268),GI50 (SNB-75)
CCCCCCN(C(=O)Oc1ccccc1)C(C#N)c1ccccc1 (centres undefined),> 100 µM (inactive),> 100 µM (inactive),> 100 µM (inactive),> 100 µM (inactive),> 100 µM (inactive),> 100 µM (inactive),> 100 µM (inactive),> 100 µM (inactive),> 100 µM (inactive),> 100 µM (inactive),> 100 µM (inactive),> 100 µM (inactive),> 100 µM (inactive),> 100 µM (inactive),> 100 µM (inactive),> 100 µM (inactive),> 100 µM (inactive),> 100 µM (inactive),> 100 µM (inactive)
CCOC(=O)C(O)Cc1cnc2ccccc2n1 (centres undefined),> 100 µM (inactive),> 100 µM (inactive),> 100 µM (inactive),44.9 µM (inactive),> 100 µM (inactive),> 100 µM (inactive),> 100 µM (inactive),> 100 µM (inactive),> 100 µM (inactive),> 100 µM (inactive),> 100 µM (inactive),> 100 µM (inactive),> 100 µM (inactive),> 100 µM (inactive),> 100 µM (inactive),> 100 µM (inactive),> 100 µM (inactive),> 100 µM (inactive),> 100 µM (inactive)
CCn1cc(C(=O)O)c(=O)c2cc3c(cc21)S(=O)(=O)CC3,> 100 µM (inactive),> 100 µM (inactive),> 100 µM (inactive),> 100 µM (inactive),> 100 µM (inactive),> 100 µM (inactive),> 100 µM (inactive),> 100 µM (inactive),> 100 µM (inactive),> 100 µM (inactive),> 100 µM (inactive),> 100 µM (inactive),> 100 µM (inactive),> 100 µM (inactive),> 100 µM (inactive),> 100 µM (inactive),> 100 µM (inactive),> 100 µM (inactive),> 100 µM (inactive)
CC1(c2cccc(C(F)(F)F)c2)CC(c2cccc(C(F)(F)F)c2)=C(C#N)C(=C(C#N)C#N)N1 (centres undefined),18.1 µM (inactive),17.2 µM (inactive),18.7 µM (inactive),2.88 µM (inactive),14.6 µM (inactive),17.2 µM (inactive),17.2 µM (inactive),15.2 µM (inactive),15.2 µM (inactive),18.1 µM (inactive),19.2 µM (inactive),17.1 µM (inactive),19.5 µM (inactive),11.9 µM (inactive),17.5 µM (inactive),16.4 µM (inactive),16.8 µM (inactive),15 µM (inactive),19.3 µM (inactive)
Clc1ccc(CCN(CCc2ccc(Cl)c(Cl)c2)CCN2CCCC2)cc1Cl,1.77 µM (inactive),1.74 µM (inactive),2.04 µM (inactive),1.15 µM (inactive),1.89 µM (inactive),2.01 µM (inactive),1.68 µM (inactive),1.69 µM (inactive),2.25 µM (inactive),1.44 µM (inactive),1.79 µM (inactive),1.78 µM (inactive),1.75 µM (inactive),1.73 µM (inactive),1.68 µM (inactive),2.16 µM (inactive),1.72 µM (inactive),1.73 µM (inactive),2.23 µM (inactive)
CN(C)CCNc1ccc2ncnc3c2c1C(=O)c1ccccc1-3,1.64 µM (inactive),0.281 µM (active),5.32 µM (inactive),0.143 µM (active),0.433 µM (active),0.476 µM (active),0.348 µM (active),0.0676 µM (active),0.221 µM (active),0.535 µM (active),0.0769 µM (active),0.166 µM (active),0.357 µM (active),0.556 µM (active),0.466 µM (active),0.263 µM (active),0.444 µM (active),0.513 µM (active),0.446 µM (active)
